Source: publication PMC9828418 (Angewandte Chemie (International Ed. in English), 2022)
Where two headings read alike, the source gives them in different places.

Key:
[1] = Protonation constants of Bi^III complexes by pH-potentiometry; format: physicochemical; conditions: 0.15 M NaClO4, 25 °C
[2] = format: physicochemical; conditions: 0.15 M NaClO4, 25 °C
[3] = 0.6 M NaClO4, 25 °C; cited from earlier work

| Compound | logK Bi(HL) (protonation constant of complex) [1] | logK BiL (stability constant) [2] | logK BiL (stability constant) ([2]; listed as A) | logK BiL (stability constant) ([2]; listed as B) | logK BiL (stability constant) [3] |
| --- | --- | --- | --- | --- | --- |
| CC1(N(CC(=O)[O-])CC(=O)[O-])CN(CC(=O)[O-])CCN(CC(=O)[O-])C1.[Bi+3] [[Bi(AAZTA)]^−] | 1.63(3) | 26.45 | 26.45(6) | – | – |
| O=C([O-])CCCCC1(N(CC(=O)[O-])CC(=O)[O-])CN(CC(=O)[O-])CCN(CC(=O)[O-])C1.[Bi+3] [[Bi(AAZTA‐C4‐COO^−)]^2−] | 4.74(4) | 28.75 | – | 28.75(8) | – |
| O=C([O-])CN(CCN(CC(=O)[O-])CC(=O)[O-])CCN(CC(=O)[O-])CC(=O)[O-].[Bi+3] [[Bi(DTPA)]^2−] | – | – | – | – | 29.29 |
